Measured values reported in ChEMBL document CHEMBL1201862, “PubChem BioAssay data set” (2004).
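Cultured in 96-well plates, cells were exposed to test compound for 48 hours across five concentrations. GI50 = concentration required for 50% inhibition of growth.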 The source made the active and inactive calls. No stated cut-off is given here; in the data, active = GI50 up to about 1.1 µM and inactive = higher.

Columns and labels:
Assay in all cases: DTP human tumour cell line panel, 48 h
786-0 = tested on: 786-0
A498 = tested on: A498
A549 = tested on: A549
ACHN = tested on: ACHN
CAKI-1 = tested on: CAKI-1
CCRF-CEM = tested on: CCRF-CEM
COLO 205 = tested on: COLO 205
DLD-1 = tested on: DLD-1
DMS-114 = tested on: DMS-114
DMS-273 = tested on: DMS-273
EKVX = tested on: EKVX
HCC 2998 = tested on: HCC 2998
HCT-116 = tested on: HCT-116
HCT-15 = tested on: HCT-15
HOP-18 = tested on: HOP-18
HOP-62 = tested on: HOP-62
HOP-92 = tested on: HOP-92
IGROV-1 = tested on: IGROV-1
K562 = tested on: K562
KM-20L2 = tested on: KM-20L2
KM12 = tested on: KM12
LOX IMVI = tested on: LOX IMVI
LXFL 529 = tested on: LXFL 529
M14 = tested on: M14
M19-MEL = tested on: M19-MEL
Malme-3M = tested on: Malme-3M
NCI-H226 = tested on: NCI-H226
NCI-H23 = tested on: NCI-H23
NCI-H460 = tested on: NCI-H460
NCI-H522 = tested on: NCI-H522
OVCAR-3 = tested on: OVCAR-3
OVCAR-4 = tested on: OVCAR-4
OVCAR-5 = tested on: OVCAR-5
OVCAR-8 = tested on: OVCAR-8
RPMI-8226 = tested on: RPMI-8226
RXF 393 = tested on: RXF 393
RXF 631 = tested on: RXF 631
SF-268 = tested on: SF-268
SF-539 = tested on: SF-539
SK-MEL-28 = tested on: SK-MEL-28
SK-MEL-2 = tested on: SK-MEL-2
SK-MEL-5 = tested on: SK-MEL-5
SK-OV-3 = tested on: SK-OV-3
SN12C = tested on: SN12C
SNB-19 = tested on: SNB-19
SNB-75 = tested on: SNB-75
SNB-78 = tested on: SNB-78
SW-620 = tested on: SW-620
TK-10 = tested on: TK-10
U-251 = tested on: U-251
UACC-257 = tested on: UACC-257
UACC-62 = tested on: UACC-62
UO-31 = tested on: UO-31
XF498 = tested on: XF498
HL-60 = tested on: HL-60
HT-29 = tested on: HT-29
MOLT-4 = tested on: MOLT-4
SF-295 = tested on: SF-295
SR = tested on: SR

Measured: GI50

COC(=O)C(CC(C)=O)CS(=O)(=O)CC(=O)C(=O)Nc1cccc([N+](=O)[O-])c1 (configuration not stated)
inactive: 786-0 > 100 µM | A498 > 100 µM | A549 > 100 µM | ACHN > 100 µM | CAKI-1 > 100 µM | CCRF-CEM > 100 µM | COLO 205 > 100 µM | DLD-1 > 100 µM | DMS-114 > 100 µM | DMS-273 > 100 µM | EKVX > 100 µM | HCC 2998 > 100 µM | HCT-116 > 100 µM | HOP-18 > 100 µM | HOP-62 > 100 µM | HOP-92 > 100 µM | IGROV-1 > 100 µM | K562 > 100 µM | KM-20L2 > 100 µM | KM12 > 100 µM | LOX IMVI > 100 µM | LXFL 529 > 100 µM | M14 > 100 µM | M19-MEL > 100 µM | Malme-3M > 100 µM | NCI-H226 > 100 µM | NCI-H23 > 100 µM | NCI-H460 > 100 µM | NCI-H522 > 100 µM | OVCAR-3 > 100 µM | OVCAR-4 > 100 µM | OVCAR-5 > 100 µM | OVCAR-8 > 100 µM | RPMI-8226 > 100 µM | RXF 393 > 100 µM | RXF 631 > 100 µM | SF-268 > 100 µM | SF-539 > 100 µM | SK-MEL-28 > 100 µM | SK-MEL-2 > 100 µM | SK-MEL-5 > 100 µM | SK-OV-3 > 100 µM | SN12C > 100 µM | SNB-19 > 100 µM | SNB-75 > 100 µM | SNB-78 > 100 µM | SW-620 > 100 µM | TK-10 > 100 µM | U-251 > 100 µM | UACC-257 > 100 µM | UACC-62 > 100 µM | UO-31 > 100 µM | XF498 55.6 µM
> 100 µM: HCT-15

COC(=O)C(Cc1nc2ccc(Cl)cc2nc1O)C(=O)C(=O)Nc1cc(C)ccc1C (configuration not stated)
inactive: 786-0 > 100 µM | A498 > 100 µM | A549 > 100 µM | ACHN > 100 µM | CAKI-1 > 100 µM | CCRF-CEM > 100 µM | COLO 205 > 100 µM | DLD-1 > 100 µM | DMS-114 > 100 µM | DMS-273 > 100 µM | EKVX 8.2 µM | HCC 2998 > 100 µM | HCT-116 > 100 µM | HL-60 > 100 µM | HOP-18 > 100 µM | HOP-62 > 100 µM | HT-29 > 100 µM | IGROV-1 > 100 µM | K562 > 100 µM | KM-20L2 > 100 µM | KM12 > 100 µM | LOX IMVI > 100 µM | LXFL 529 > 100 µM | M14 > 100 µM | M19-MEL > 100 µM | MOLT-4 > 100 µM | Malme-3M > 100 µM | NCI-H226 > 100 µM | NCI-H23 > 100 µM | NCI-H460 > 100 µM | NCI-H522 > 100 µM | OVCAR-3 > 100 µM | OVCAR-4 > 100 µM | OVCAR-5 > 100 µM | OVCAR-8 > 100 µM | RPMI-8226 > 100 µM | RXF 393 > 100 µM | RXF 631 > 100 µM | SF-268 > 100 µM | SF-295 > 100 µM | SF-539 > 100 µM | SK-MEL-28 > 100 µM | SK-MEL-2 > 100 µM | SK-MEL-5 > 100 µM | SK-OV-3 > 100 µM | SN12C > 100 µM | SNB-19 > 100 µM | SNB-75 > 100 µM | SNB-78 > 100 µM | SR > 100 µM | SW-620 > 100 µM | TK-10 > 100 µM | U-251 > 100 µM | UACC-257 > 100 µM | UACC-62 > 100 µM | UO-31 > 100 µM | XF498 > 100 µM
> 100 µM: HCT-15
